Assay results published in patent publication US10711278B2, “Genetically altered alfalfa producing clovamide and/or related hydroxycinnamoyl amides” (The United States of America, as represented by the …, priority 2015, dated 2020).
Changes are numbered by the printed parent chain.

Assays:
[1] = cited from earlier work
[2] = In-vitro hydroxycinnamoyl-CoA transferase activity of soluble E. coli extracts expressing HDT1 or HDT2, HPLC of products; type: biochemical, Trifolium pratense; conditions: expressed in E. coli; p-coumaroyl-, caffeoyl-, and feruloyl-CoA
Description: Plasmids containing full-length red clover HDT coding regions (both HDT1 (SEQ ID NO: 1) and HDT2 (SEQ ID NO: 3)) were used as templates in PCR reactions with primers designed to introduce an […] restriction site at the start codons (ms886—SEQ ID NO: 13) and an XhoI site immediately following the stop codon (ms887—SEQ ID NO: 14) of each open reading frame. The resulting PCR products were digested with NcoI and XhoI and inserted into pET28a (Novagen, Madison, Wis.) digested with NcoI and XhoI. The insert is operably linked to the IPTG-inducible promoter contained in pET28. Each plasmid was sequenced to confirm correct sequence was generated.
Each pET28 derivative containing HDT coding regions (pET28-HDT1 and pET28-HDT2) or pET28 (as a negative control) were transformed, individually, into BL21(DE3)RIL Codon Plus E. coli (Agilent Technologies, Santa Clara, Calif.). […] The soluble fraction was isolated, divided into single use aliquots, flash frozen in liquid nitrogen and stored at −80° C. until ready to use. […]
The supernatant is analyzed for reaction products by HPLC. […]

hydroxycinnamoyl-CoA:malate hydroxycinnamoyl transferase [HMT]
HDT activity ([1]; HCT2 gene product produced in E. coli): does not have HDT activity | preference for p-coumaroyl-CoA and feruloyl-CoA donor substrates over caffeoyl-CoA ([1]; in-vitro): five- to tenfold

B1: hydroxycinnamoyl-CoA:L-DOPA/tyrosine hydroxycinnamoyl transferase 1 (protein)
chain: MVTIIASHTVIPEEPTPQGPFWLSDMDQVVRIRDVPTLYIYKTPKKNQENKNIVETFKNSLSKILVHYYPIAGRLCYIEGGRLELNLNAKGAILVEAETEKTMNDYGDFSHFDTIKELVPMIDYNQPIEEIPNFVVQLTNFKNNEGFAIGVAFLHPLSDGLGAIKFINSWAKIARGETLEANELPFLDRKLLKFSHTPLEPRFEHLELKPLPLILGRKDASEEKEKKTSATLLKLSSEQVDKLKKKANEEDVLGIQKKEYSRPYSKFEVISAHIWRCASKARELEDNQESVIRFIADVKNRMIPPLPKNYFGNALTQTATKGYIGEITSKPLGYVAQKIREATELINDEYIRSQIDVVRSFEHLDDARKMFIGEKARYFGNPNFNLTSWLSMPVYEADFGWGKPNYFGLADVSPHDRAVILLSPDDDGSVLVSFHFQIAHMELFNKYFYEEI
modifications: Trifolium pratense
transfer of trans-hydroxycinnamoyl moiety from CoA derivative to L-DOPA or L-tyrosine [2]: capable of transferring a trans-hydroxycinnamoyl moiety

B2: hydroxycinnamoyl-CoA:L-DOPA/tyrosine hydroxycinnamoyl transferase 2 (protein)
chain: B1 chain with N140K, I255V, E285K, I346V, F436L
modifications: Trifolium pratense
transfer of trans-hydroxycinnamoyl moiety from CoA derivative to L-DOPA or L-tyrosine [2]: capable of transferring a trans-hydroxycinnamoyl moiety
